# Measurements: patent US5472949A, “N^4 -(substituted-oxycarbonyl)-5'-deoxy-5-fluorocytidine compounds, compositions and methods of using same” (Hoffmann-La Roche Inc., priority 1992, dated 1995)
# Key:
# [1] = Pharmacokinetic profiles in monkeys (plasma 5'-DFUR after oral administration); assay type: in vivo; settings: cynomolgous monkeys, metabolite 5'-DFUR in plasma
# Protocol: The compounds of formula (I) were orally administered into groups of 2 to 5 cynomolgous monkeys (3-4 kg). At various times after the administration, plasma was taken for determination of blood concentrations of intact molecules and their active metabolite 5'-DFUR. Metabolites in the plasma were separated by HPLC and their concentrations were calculated.
# monkey liver acylamidase = assay: Susceptibility to monkey liver acylamidase (crude liver extract, 5'-DFCR formed by HPLC); assay type: in vitro ADME; settings: tetrahydrouridine 0.4 mM, 37° C., 60 min
# Protocol: (§1) The N^4 -(substituted-oxycarbonyl)-5'-DFCRs of the invention were incubated with crude extracts of monkey and human liver in the presence of an inhibitor of cytidine deaminase, tetrahydrouridine (0.4 mM) at 37° C. for 60 min. Thereafter, the product 5'-DFCR was separated by HPLC and the enzyme susceptibility was calculated from the amount of the product.
# colon 26 carcinoma = assay: Antitumor and anticachexia activity against mouse colon 26 carcinoma; assay type: in vivo, Mice (CDF1); settings: for Serum IAP: IAP = immunosuppressive acidic protein
# Protocol: Antitumor activity of a representative compound (Example 13), of the present invention, was measured as follows. Mice (CDF1) were subcutaneously inoculated with colon 26 carcinoma (10^6 cells) on day 0. The compound was administered daily for 7 times from day 21 when the animals became cachectic. One day after the last treatment, tumor weight gain, carcass weight gain, adipose tissue weight, concentrations of glucose and the acute phase reactant IAP (immunosuppressive acidic protein) in the serum were measured.
# human liver acylamidase = assay: Susceptibility to human liver acylamidase (crude liver extract, 5'-DFCR formed by HPLC); assay type: in vitro ADME; settings: tetrahydrouridine 0.4 mM, 37° C., 60 min
# Protocol: as §1
# [2] = test system: CXF280 Human Colon Carcinoma; assay: Antitumor testing against human colon cancer xenograft CXF280; assay type: in vivo, BALB/c nu/nu mice; parameters: key to Fecal observation: N: normal feces; L: loose passage
# Protocol: CXF280 tumor (about 2×2 mm piece) was implanted subcutaneously into BALB/c nu/nu mice (21-22 g) on day 0. When tumor volume became 100 mm^3 on day around 14, the compounds of the invention were orally administered daily for 3 weeks. At one day after the last treatment, tumor volume was calculated.
# The percent inhibition of tumor growth given in Table 3 above was calculated from the formula:
# % Inhibition ={1-(T-V0)/(C-V0)}×100
# V0 =volume of tumor before treatment was started, T=volume of the tumors from the treated group, C=volume of the tumor from the control group.
# [3] = Toxicity (LD50), oral administration daily for 21 days in mice; settings: mouse, in vivo
# Protocol: The toxicity (LD50) of the representative compounds (Example 13,14, and 17) of the present invention was examined by oral administration daily for 21 days in mice. The representative LD50 values obtained from the experiments were more than 500 mg/kg/day.
compound,measurement,setting,value
"CCCCCCOC(=O)Nc1nc(=O)n([C@@H]2O[C@H](C)[C@@H](O)[C@H]2O)cc1F [Example 13, 5'-deoxy-5-fluoro-N^4-(hexyloxycarbonyl)cytidine]",Plasma 5'-DFUR AUC,[1],1960 ng·h/mL
same,"Acylamidase activity, Monkey Liver",monkey liver acylamidase,47 nmol/mg protein/hr
same,Adipose tissue wt.,"colon 26 carcinoma; 0.125 mmol/kg x 7, from day 21",22 mg
same,Carcass wt. change,"colon 26 carcinoma; 0.125 mmol/kg x 7, from day 21",1.6 g
same,Serum glucose,"colon 26 carcinoma; 0.125 mmol/kg x 7, from day 21",118 mg/dL
same,Tumor wt. change,"colon 26 carcinoma; 0.125 mmol/kg x 7, from day 21",1.24 g
same,Serum IAP,"colon 26 carcinoma; 0.125 mmol/kg x 7, from day 21",1195 µg/mL
same,Adipose tissue wt.,"colon 26 carcinoma; 0.25 mmol/kg x 7, from day 21",42 mg
same,Carcass wt. change,"colon 26 carcinoma; 0.25 mmol/kg x 7, from day 21",3.4 g
same,Serum glucose,"colon 26 carcinoma; 0.25 mmol/kg x 7, from day 21",120 mg/dL
same,Tumor wt. change,"colon 26 carcinoma; 0.25 mmol/kg x 7, from day 21",0.91 g
same,Serum IAP,"colon 26 carcinoma; 0.25 mmol/kg x 7, from day 21",1020 µg/mL
same,Adipose tissue wt.,"colon 26 carcinoma; 0.5 mmol/kg x 7, from day 21",63 mg
same,Carcass wt. change,"colon 26 carcinoma; 0.5 mmol/kg x 7, from day 21",4.2 g
same,Serum glucose,"colon 26 carcinoma; 0.5 mmol/kg x 7, from day 21",147 mg/dL
same,Tumor wt. change,"colon 26 carcinoma; 0.5 mmol/kg x 7, from day 21",0.79 g
same,Serum IAP,"colon 26 carcinoma; 0.5 mmol/kg x 7, from day 21",805 µg/mL
same,Adipose tissue wt.,"colon 26 carcinoma; 1 mmol/kg x 7, from day 21",85 mg
same,Carcass wt. change,"colon 26 carcinoma; 1 mmol/kg x 7, from day 21",5.6 g
same,Serum glucose,"colon 26 carcinoma; 1 mmol/kg x 7, from day 21",127 mg/dL
same,Tumor wt. change,"colon 26 carcinoma; 1 mmol/kg x 7, from day 21",0.006 g
same,Serum IAP,"colon 26 carcinoma; 1 mmol/kg x 7, from day 21",795 µg/mL
same,cachexia (in words),colon 26 carcinoma; daily for 7 times from day 21,improved cachexia
same,tumor growth (in words),colon 26 carcinoma; daily for 7 times from day 21,suppressed tumor growth
same,"Acylamidase activity, Human Liver",human liver acylamidase,220 nmol/mg protein/hr
same,Fecal observation,"[2]; Exp. 1, 1.5 mmol/kg/day x 21, oral",N
same,inhibition in vivo at 0.13 mmol/kg/day,"[2]; Mus musculus, po, Exp. 1, 0.13 mmol/kg/day x 21, oral, read-out: % Growth inhibition",59%
same,inhibition in vivo at 0.3 mmol/kg/day,"[2]; Mus musculus, po, Exp. 1, 0.3 mmol/kg/day x 21, oral, read-out: % Growth inhibition",66%
same,inhibition in vivo at 0.67 mmol/kg/day,"[2]; Mus musculus, po, Exp. 1, 0.67 mmol/kg/day x 21, oral, read-out: % Growth inhibition",79%
same,inhibition in vivo at 1 mmol/kg/day,"[2]; Mus musculus, po, Exp. 1, 1.0 mmol/kg/day x 21, oral, read-out: % Growth inhibition",91%
same,inhibition in vivo at 1.5 mmol/kg/day,"[2]; Mus musculus, po, Exp. 1, 1.5 mmol/kg/day x 21, oral, read-out: % Growth inhibition",94%
same,LD50 at 504 h,[3],> 500 mg/kg
